Results as given in ChEMBL document CHEMBL1153562, “Are all the DNA gyrase mutations found in Mycobacterium leprae clinical strains involved in resistance to fluoroquinolones?” (Antimicrob Agents Chemother, 2008).
Values after ≈ are worked out from the molar mass of the structure shown. Active and inactive are the calls of the source. No cut-off for these calls is given here.

Assays:
[1] = system: Mycobacterium leprae [A91V]; assay: (§1) Inhibition of Mycobacterium […] A A91V mutant assessed as formation of DNA cleavable complex
Mycobacterium leprae [2] = assay: Inhibition of Mycobacterium […] B D205N mutant assessed as formation of DNA cleavable complex
Mycobacterium leprae [3] = assay: Inhibition of Mycobacterium […] B D205N mutant assessed as DNA supercoiling inhibition
Mycobacterium leprae [4] = assay: Inhibition of Mycobacterium leprae wild type DNA gyrase A2B2 assessed as formation of DNA cleavable complex
Mycobacterium leprae [5] = assay: Inhibition of Mycobacterium leprae DNA gyrase subunit A G89C mutant assessed as DNA supercoiling inhibition
Mycobacterium leprae [6] = assay: Inhibition of Mycobacterium leprae DNA gyrase subunit A A91V mutant assessed as DNA supercoiling inhibition
Mycobacterium leprae [7] = assay: Inhibition of Mycobacterium leprae wild type DNA gyrase A2B2 assessed as DNA supercoiling inhibition
Mycobacterium leprae [8] = assay: Selectivity index, ratio of IC50 for Mycobacterium leprae DNA gyrase subunit A G89C mutant to IC50 for Mycobacterium leprae wild type DNA gyrase A2B2
Mycobacterium leprae [9] = assay: Selectivity index, ratio of IC50 for Mycobacterium leprae DNA gyrase subunit A A91V mutant to IC50 for Mycobacterium leprae wild type DNA gyrase A2B2
Mycobacterium leprae [10] = assay: as §1
Mycobacterium leprae [11] = assay: Selectivity index, ratio of CC25 for Mycobacterium leprae DNA gyrase subunit A A91V mutant to CC25 for Mycobacterium leprae wild type DNA gyrase A2B2 by DNA cleavage assay

## CCn1cc(C(=O)O)c(=O)c2ccc(C)nc21 [NALIDIXIC ACID]
[1]
  CC25: inactive
Mycobacterium leprae [2]
  CC25: inactive
Mycobacterium leprae [3]
  IC50: 600 µg/mL (≈ 2580 µM)
Mycobacterium leprae [4]
  CC25: inactive
Mycobacterium leprae [5]
  IC50: 150 µg/mL (≈ 646 µM)
Mycobacterium leprae [6]
  IC50: 170 µg/mL (≈ 732 µM)

## COc1c(N2C[C@@H]3CCCN[C@@H]3C2)c(F)cc2c(=O)c(C(=O)O)cn(C3CC3)c12 [MOXIFLOXACIN]
Mycobacterium leprae [7]
  IC50: 6 µg/mL (≈ 14.9 µM)
Mycobacterium leprae [8]
  fold change (FC): 3
Mycobacterium leprae [5]
  IC50: 30 µg/mL (≈ 74.7 µM)
Mycobacterium leprae [9]
  fold change (FC): 5
Mycobacterium leprae [6]
  IC50: 25 µg/mL (≈ 62.3 µM)

## CC1COc2c(N3CCN(C)CC3)c(F)cc3c(=O)c(C(=O)O)cn1c23 (stereo unspecified) [OFLOXACIN]
Mycobacterium leprae [10]
  CC25: 110 µg/mL (≈ 304 µM)
Mycobacterium leprae [2]
  CC25: 8 µg/mL (≈ 22.1 µM)
Mycobacterium leprae [11]
  fold change (FC): 12
Mycobacterium leprae [3]
  IC50: 20 µg/mL (≈ 55.3 µM)
Mycobacterium leprae [7]
  IC50: 15 µg/mL (≈ 41.5 µM)
Mycobacterium leprae [4]
  CC25: 9 µg/mL (≈ 24.9 µM)
Mycobacterium leprae [5]
  IC50: 160 µg/mL (≈ 443 µM)
Mycobacterium leprae [9]
  fold change (FC): 5
Mycobacterium leprae [6]
  IC50: 80 µg/mL (≈ 221 µM)

## CCn1cc(C(=O)O)c(=O)c2cc3c(cc21)OCO3 [OXOLINIC ACID]
[1]
  CC25: inactive
Mycobacterium leprae [2]
  CC25: inactive
Mycobacterium leprae [3]
  IC50: 700 µg/mL (≈ 2680 µM)
Mycobacterium leprae [7]
  IC50: 400 µg/mL (≈ 1530 µM)
Mycobacterium leprae [4]
  CC25: inactive
Mycobacterium leprae [5]
  IC50: 180 µg/mL (≈ 689 µM)
Mycobacterium leprae [6]
  IC50: 200 µg/mL (≈ 766 µM)

## C[C@H]1NCc2cc(-c3ccc4c(=O)c(C(=O)O)cn(C5CC5)c4c3OC(F)F)ccc21 [GARENOXACIN]
Mycobacterium leprae [10]
  CC25: 17 µg/mL (≈ 39.9 µM)
Mycobacterium leprae [11]
  fold change (FC): 17
Mycobacterium leprae [3]
  IC50: 16 µg/mL (≈ 37.5 µM)
Mycobacterium leprae [7]
  IC50: 6 µg/mL (≈ 14.1 µM)
Mycobacterium leprae [4]
  CC25: 1 µg/mL (≈ 2.35 µM)
Mycobacterium leprae [5]
  IC50: 5 µg/mL (≈ 11.7 µM)
Mycobacterium leprae [6]
  IC50: 8 µg/mL (≈ 18.8 µM)

## COc1c(N2CCNC(C)C2)c(F)cc2c(=O)c(C(=O)O)cn(C3CC3)c12 (stereo unspecified) [GATIFLOXACIN]
Mycobacterium leprae [10]
  CC25: 4 µg/mL (≈ 10.7 µM)
Mycobacterium leprae [11]
  fold change (FC): 12
Mycobacterium leprae [3]
  IC50: 4.5 µg/mL (≈ 12 µM)
Mycobacterium leprae [7]
  IC50: 3.5 µg/mL (≈ 9.32 µM)
Mycobacterium leprae [4]
  CC25: 0.3 µg/mL (≈ 0.799 µM)
Mycobacterium leprae [5]
  IC50: 20 µg/mL (≈ 53.3 µM)
Mycobacterium leprae [9]
  fold change (FC): 5
Mycobacterium leprae [6]
  IC50: 20 µg/mL (≈ 53.3 µM)

## CO[C@@H]1[C@@H](OC(N)=O)[C@@H](O)[C@H](Oc2ccc3c(O)c(NC(=O)c4ccc(O)c(CC=C(C)C)c4)c(=O)oc3c2C)OC1(C)C [NOVOBIOCIN]
Mycobacterium leprae [3]
  IC50: 0.3 µg/mL (≈ 0.49 µM)
Mycobacterium leprae [7]
  IC50: 0.25 µg/mL (≈ 0.408 µM)
Mycobacterium leprae [5]
  IC50: 0.3 µg/mL (≈ 0.49 µM)
Mycobacterium leprae [6]
  IC50: 0.2 µg/mL (≈ 0.326 µM)
